Here are results for seven compounds from patent publication US5157019A, “Serine protease inhibitors” (Monsanto Company, priority 1991, dated 1992).

Read-outs that look alike come from different tables or passages of the source. Ends that are not written are not given here.

What all share (assay type): biochemical
One assay deals with Plasmin (Homo sapiens, UniProt P00747). The experiment in a line: Plasmin assay (S2251). The settings on record: 200 μM peptide. On the procedure: Substrate H-D-Val-Leu-Lys-pNA·HCl (S2251, Kabi), 10 mM in deionized water; may be frozen for future use.
Buffer 50 mM Tris·HCl, pH 7.4 containing 0.01% Tween 80
Inhibitor 400 μM in deionized water
Enzyme Plasmin; 0.5 U/ml in buffer (Cat #P-4895, Sigma Chemical Co., St. Louis, Mo.)
Mix 220 μL buffer, 200 μL deionized water (control) or inhibitor solution and 40 μL substrate. Incubate for 2 min at 37° C. Transfer 230 μL to a microcuvette, add 40 μL of enzyme, mix, and measure rate spectrophotometrically at 405 nm for about 5 min. Inhibition (%) is calculated in the same manner as in previous assays.

The next assay has as its target Factor Xa (Homo sapiens, UniProt P00742). Nature of the assay: Coagulation inhibition assay, Factor Xa (clotting of Factor X deficient plasma). The settings on record: 40 μM peptide. The protocol: Inhibitory activity of subject peptides toward thrombin and Factor Xa were done in the following manner.
Mix 50 μL Factor Xa (0.1 μg/ml) in TBSA with 100 μL Peptide in TBSA and 50 μL CaCl2 25 mM and incubate for 1 minute at 37° C. Add 50 μL Factor X deficient plasma/RBC (10/1) and measure clotting end point (in seconds) in a Fibrometer (BBL)
TBSA=Tris-Saline with Bovine Serum Albumin: 0.1M NaCl,0.05 M Tris-HCl, 1 mg/ml BSA, 0.1% NaN3
Factor X deficient plasma: George King Biomedical (GK 1004) RBC=Rabbit Brain Cephalin: Sigma Chemical Co. St. Louis, Mo.

The target in a further assay is T1, C1s (Homo sapiens, UniProt P09871).
T1 construct: prepared from pooled human plasma; from tissue; host or cells: pooled human plasma
T1 sequence (P09871 16-688): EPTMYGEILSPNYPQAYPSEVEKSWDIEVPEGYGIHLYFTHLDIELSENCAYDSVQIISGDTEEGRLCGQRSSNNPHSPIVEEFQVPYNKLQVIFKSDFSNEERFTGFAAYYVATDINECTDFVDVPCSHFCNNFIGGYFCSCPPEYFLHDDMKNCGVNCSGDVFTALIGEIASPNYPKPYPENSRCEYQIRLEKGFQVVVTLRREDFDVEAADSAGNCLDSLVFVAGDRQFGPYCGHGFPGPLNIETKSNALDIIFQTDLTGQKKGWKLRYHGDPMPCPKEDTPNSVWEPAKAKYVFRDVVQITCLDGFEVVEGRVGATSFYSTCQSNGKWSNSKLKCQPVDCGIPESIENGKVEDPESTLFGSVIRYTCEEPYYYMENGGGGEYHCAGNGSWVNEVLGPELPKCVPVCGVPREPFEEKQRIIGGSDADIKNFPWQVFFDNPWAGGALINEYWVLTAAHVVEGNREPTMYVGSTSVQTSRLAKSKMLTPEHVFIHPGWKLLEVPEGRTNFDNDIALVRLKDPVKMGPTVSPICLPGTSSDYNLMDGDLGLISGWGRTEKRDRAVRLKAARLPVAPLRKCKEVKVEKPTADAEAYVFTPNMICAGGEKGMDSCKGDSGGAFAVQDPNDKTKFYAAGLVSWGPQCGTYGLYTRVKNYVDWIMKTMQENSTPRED
Nature of the assay: C1s assay by inhibition of fluid phase C4 activation. The protocol:
Highly purified C3, C4, Factor D, Factor B, and C1s were prepared from pooled human plasma. Factors B and C4 were radiolabeled by periodate oxidation of sialic acid residues, followed by reduction with tritiated sodium borohydride. In a representative experiment, a solution of 1.2 mg of factor B in 1.8 ml of PBS was treated with 70 μl of 0.1M NaIO4. After 10 min incubation on ice, excess reagent was removed by filtration over "SEPHADEX®" which is a matrix for gel chromatography (1.0 cm×20 cm). To the protein pool was added 60 μl of NaB[^3 H]4 solution and incubated for 30 min on ice. Labeled protein was separated from excess reagent by desalting or dialysis. Human C4 was radiolabeled in the same manner. Radiolabeled proteins were stored at -70° C. in PBS. The specific radioactivity of ^3 H factor B was about 10,000 CPM/μg and that of ^3 H-C4 was 5,000 CPM/μg.
The cleavage of C4 was studied by incubating 10 μg of tritiated C4 with 3-5 ng of C1s at 37° C. for 30 min in 100 μl of PBS (pH 7.10) containing different concentrations of inhibitor. The reaction was stopped by the addition of 2-mercaptoethanol. The extent of cleavage was analyzed by SDS-polyacrylamide gel electrophoresis. The stained bands corresponding to C4α and C4α' were cut out and sliced. The radioactivity of the fragments was measured by liquid scintillation counting. The percent cleavage of the reaction was calculated as follows: [formula]
Electrophoresis was carried out under reducing conditions in the Laemmli system using slab gel of 8% polyacrylamide. The gels were stained and destained (Fairbanks et al. Biochemistry (1971) 10:2606).
The percent inhibition of the reaction was calculated according to the following relationship: [formula]
A: % cleavage without inhibitor
B: % cleavage with inhibitor
The concentration inducing 50% inhibition was obtained by plotting the percent inhibition on a probability graph (National Blank Book Co., No. 12-083) on the ordinate and the log of the inhibitor concentration on the abscissa. From this graph, a 50% inhibition concentration IC50 was obtained and this value was employed to express the activity.

The target of another assay is Thrombin (Homo sapiens, UniProt P00734). The experiment in a line: Coagulation inhibition assay, thrombin (fibrinogen clotting end point). The settings on record: 40 μM peptide. On the procedure: Inhibitory activity of subject peptides toward thrombin and Factor Xa were done in the following manner. Mix 100 μL Thrombin (3.125 units/ml, 1.125 μg/ml) in TAB with […] Peptide in TAB and incubate for 1 minute at 37° C. Add 50 μL Fibrinogen (2 mg/ml)and measure clotting end point (in seconds) in a Fibrometer (BBL) TAB=Thrombin Assay Buffer: 0.15M NaCl, 6.6 gm/L PEG-6000, 0.01M Imidazole, 0.01 CaCl2, pH 7.4

Setting [1] is: Tables VI and VIII, % 50, read-out: C1s, μM concentration listed for 50 % inhibition.

Plasmin, sequence (P00747 581-810 limits assumed): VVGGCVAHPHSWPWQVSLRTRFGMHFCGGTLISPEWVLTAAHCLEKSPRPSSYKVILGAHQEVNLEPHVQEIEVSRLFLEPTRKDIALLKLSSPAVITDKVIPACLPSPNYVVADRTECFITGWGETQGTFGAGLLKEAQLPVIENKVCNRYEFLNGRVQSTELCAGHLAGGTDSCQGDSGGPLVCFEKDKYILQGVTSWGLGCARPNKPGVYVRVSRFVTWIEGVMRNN
Plasmin, sequence (P00747 97-580 partner limits assumed): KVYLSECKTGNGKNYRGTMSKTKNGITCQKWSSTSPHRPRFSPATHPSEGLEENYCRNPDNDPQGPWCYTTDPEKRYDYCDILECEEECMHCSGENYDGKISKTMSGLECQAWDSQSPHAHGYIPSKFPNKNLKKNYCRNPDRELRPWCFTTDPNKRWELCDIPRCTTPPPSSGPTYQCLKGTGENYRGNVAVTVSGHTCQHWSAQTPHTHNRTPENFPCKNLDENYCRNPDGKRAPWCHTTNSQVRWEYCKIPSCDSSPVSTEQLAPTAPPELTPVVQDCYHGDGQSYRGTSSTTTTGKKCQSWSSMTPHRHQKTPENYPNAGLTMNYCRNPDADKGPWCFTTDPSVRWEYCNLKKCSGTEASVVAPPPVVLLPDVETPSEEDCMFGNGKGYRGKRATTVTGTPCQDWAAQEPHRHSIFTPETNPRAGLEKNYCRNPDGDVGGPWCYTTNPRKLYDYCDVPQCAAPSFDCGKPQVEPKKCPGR
Factor Xa, sequence (P00742 235-488 limits assumed): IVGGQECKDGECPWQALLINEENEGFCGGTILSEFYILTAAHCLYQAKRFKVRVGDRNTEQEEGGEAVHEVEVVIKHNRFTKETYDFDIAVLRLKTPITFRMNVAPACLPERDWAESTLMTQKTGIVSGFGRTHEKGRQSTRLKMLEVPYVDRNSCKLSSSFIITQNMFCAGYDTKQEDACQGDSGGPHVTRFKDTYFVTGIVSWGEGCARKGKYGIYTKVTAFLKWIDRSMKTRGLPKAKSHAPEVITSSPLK
Factor Xa, sequence (P00742 41-179 partner limits assumed): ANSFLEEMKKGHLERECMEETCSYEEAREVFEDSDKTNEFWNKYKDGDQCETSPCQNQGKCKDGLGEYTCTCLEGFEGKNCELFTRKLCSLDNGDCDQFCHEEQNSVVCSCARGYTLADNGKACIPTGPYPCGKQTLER

In general, inhibition refers to how much of the control response was suppressed. Low readings indicate little suppression, high ones strong suppression. `CC[C@H](C)[C@H](NC(=O)[C@H](CC(C)C)NC(=O)[C@H](Cc1ccccc1)NC(=O)[C@@H](NC(=O)[C@H](Cc1ccccc1)NC(=O)[C@@H]1CCCN1C(=O)[C@H](CCCCN)NC(=O)[C@H](CC(N)=O)NC(=O)[C@H](Cc1ccccc1)NC(=O)[C@H](CCCCN)NC(=O)[C@@H](NC(=O)[C@H](CCC(=O)O)NC(=O)[C@@H]1CCCN1C(=O)[C@@H]1CCCN1)C(C)C)C(C)C)C(=O)O` [Peptide 1]: the inhibition at 200 µM at Plasmin came to 37%; at C1s (200 μM peptide), 0%. The inhibition at 40 µM was 31% against Factor Xa and 0% at Thrombin.

As to “AGRSLNPNRVTFKANRPFLVFIREVPLNTIIFLGRVANP [Peptide 27]”, on C1s (Table X, μM concentration at which protease was inhibited 50%, read-out: IC50 C1S), the IC50 was found to be 12 µM. Further, the inhibition at 40 µM at Thrombin is 97%.

Compound IVRFNRPFLLII [Peptide 3] returned an inhibition at 200 µM at Plasmin of 33%. The inhibition at 40 µM against Factor Xa is 73%; at Thrombin it was 50%. Besides, at C1s (setting [1]), the IC50 came out at 55 µM.

The compound “IVRFNRPFLLIIVPTDTQNIFFLSKVTNPSKPR [Peptide 22]” registered a Plasmin % inhibition on Plasmin of 56%. In addition, at Factor Xa, the “Factor Xa % inhibition” value is reported as 97%. Also, at C1s (setting [1]), the IC50 was found to be 6 µM. The Thrombin inhibition on Thrombin turned out to be 90%.

With PNRVTFKANRPFLVFI [Peptide 2], the inhibition at 200 µM against Plasmin worked out at 33%. The same compound displayed an inhibition at 40 µM against Factor Xa of 51%. Moreover, the IC50 on C1s (setting [1]) turned out to be 34 µM.

For the compound “RVTFKANRPFLVFIREVPLNTIIFLGRVANP [Peptide 21]”, the inhibition at 200 µM at Plasmin was found to be 53%. In addition, the results for the inhibition at 40 µM at Factor Xa and on Thrombin were 99% and 97%, respectively. The IC50 on C1s (setting [1]) was determined as 6 µM.

Consider “VKFNKPFVFLLIEQNTKSPLFLGKVVNPTQK [Peptide 20]”, for which the Plasmin % inhibition at Plasmin was 43%. The “Factor Xa % inhibition” value on Factor Xa was 87%. In addition, the IC50 at C1s (setting [1]) came to 12 µM. Further, the Thrombin inhibition on Thrombin is 71%.
